# Data: patent US20230108906A1, “SUBSTITUTED BICYCLIC AND TRICYCLIC UREAS AND AMIDES, ANALOGUES THEREOF, AND METHODS USING SAME” (Arbutus Biopharma Corporation, priority 2019, published 2023)
# Test system: HBV rcDNA in HepDE19 cells
# Test: HepDE19 assay with bDNA quantitation of HBV rcDNA
# Format: cell-based, hepatitis B virus (HBV)
# Settings: Hepatitis B virus, HepDE19, 168 h, inhibition of rcDNA formation in HepDE19 cells (HepG2 derived), Tet-free medium, 7 day incubation, Quantigene 2.0 bDNA readout, top concentration 25 μM; read-out: DE-19bDNA EC50
# Summary of the method: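 Cytotoxicity run on replicate plates (5,000 cells/well, 4 days, ATP luminescence, CC50), while antiviral plates (50,000 cells/well) received compound for 7 days after tetracycline withdrawal to induce HBV replication. Top dose 25 μM, 8 points, 0.5% DMSO; rcDNA by branched-DNA assay, % inhibition fitted (4-parameter) for EC50 and EC90.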
row,Structure (SMILES),EC50 [µM]
1,"CN(C(=O)Nc1ccc(F)c(C(F)F)c1)[C@@H]1COCc2c1c1cc(F)c(F)cc1c(=O)n2C [Compound 233, (S)-1-(8,9-Difluoro-5-methyl-6-oxo-1,4,5,6-tetrahydro-2H-pyrano[3,4-c]isoquinolin-1-yl)-3-(3-(difluoromethyl)-4-fluorophenyl)-1-methylurea]",0.02
2,"COc1nc2c(c3cc(F)c(F)cc13)[C@H](N(C)C(=O)Nc1ccc(F)c(C(F)F)c1)COC2 [Compound 234, (S)-1-(8,9-Difluoro-6-methoxy-1,4-dihydro-2H-pyrano[3,4-c]isoquinolin-1-yl)-3-(3-(difluoromethyl)-4-fluorophenyl)-1-methylurea]",0.05
3,CN(C(=O)Nc1ccc(F)c(Cl)c1)C1COCc2nc(NCCN)c3cc(F)c(F)cc3c21 (centres unmarked) [Compound 240],0.59
4,"CN(C(=O)Nc1ccc(F)c(Cl)c1)[C@@H]1COCc2c1c1cc(F)c(F)cc1c(=O)n2C [Compound 243, (S)-3-(3-Chloro-4-fluorophenyl)-1-(8,9-difluoro-5-methyl-6-oxo-1,4,5,6-tetrahydro-2H-pyrano[3,4-c]isoquinolin-1-yl)-1-methylurea]",0.02
5,"COc1nc2c(c3cc(F)c(F)cc13)[C@H](N(C)C(=O)Nc1ccc(F)c(Cl)c1)COC2 [Compound 244, (S)-3-(3-Chloro-4-fluorophenyl)-1-(8,9-difluoro-6-methoxy-1,4-dihydro-2H-pyrano[3,4-c]isoquinolin-1-yl)-1-methylurea]",0.08
6,"CN(C(=O)Nc1ccc(F)c(C(F)F)c1)[C@@H]1COCc2c1c1cc(F)c(F)cc1c(=O)n2CCO [Compound 251, (S)-1-(8,9-Difluoro-5-(2-hydroxyethyl)-6-oxo-1,4,5,6-tetrahydro-2H-pyrano[3,4-c]isoquinolin-1-yl)-3-(3-(difluoromethyl)-4-fluorophenyl)-1-methylurea]",0.03
7,"CN(C(=O)Nc1ccc(F)c(C(F)F)c1)[C@@H]1COCc2nc(OCCN)c3cc(F)c(F)cc3c21 [Compound 252, (S)-1-(6-(2-Aminoethoxy)-8,9-difluoro-1,4-dihydro-2H-pyrano[3,4-c]isoquinolin-1-yl)-3-(3-(difluoromethyl)-4-fluorophenyl)-1-methylurea]",0.02
8,"CN(C(=O)Nc1ccc(F)c(C(F)F)c1)[C@@H]1COCc2c1c1cc(F)c(F)cc1c(=O)n2CCN [Compound 253, (S)-1-(5-(2-Aminoethyl)-8,9-difluoro-6-oxo-1,4,5,6-tetrahydro-2H-pyrano[3,4-c]isoquinolin-1-yl)-3-(3-(difluoromethyl)-4-fluorophenyl)-1-methylurea]",0.91
9,"CN(C(=O)Nc1ccc(F)c(Cl)c1)[C@@H]1COCc2c1c1cc(F)c(F)cc1c(=O)n2CCO [Compound 254, (S)-3-(3-Chloro-4-fluorophenyl)-1-(8,9-difluoro-5-(2-hydroxyethyl)-6-oxo-1,4,5,6-tetrahydro-2H-pyrano[3,4-c]isoquinolin-1-yl)-1-methylurea]",0.058
10,"CN(C(=O)Nc1ccc(F)c(Cl)c1)[C@@H]1COCc2nc(OCCO)c3cc(F)c(F)cc3c21 [Compound 255, (S)-3-(3-Chloro-4-fluorophenyl)-1-(8,9-difluoro-6-(2-hydroxyethoxy)-1,4-dihydro-2H-pyrano[3,4-c]isoquinolin-1-yl)-1-methylurea]",0.049
11,"CN(C(=O)Nc1ccc(F)c(C(F)F)c1)[C@@H]1COCc2nc(OCCO)c3cc(F)c(F)cc3c21 [Compound 256, (S)-1-(8,9-Difluoro-6-(2-hydroxyethoxy)-1,4-dihydro-2H-pyrano[3,4-c]isoquinolin-1-yl)-3-(3-(difluoromethyl)-4-fluorophenyl)-1-methylurea]",0.019
12,"CN(C(=O)Nc1ccc(F)c(Cl)c1)[C@@H]1COCc2c1c1cc(F)c(F)cc1c(=O)n2CCN [Compound 257, (S)-1-(5-(2-Aminoethyl)-8,9-difluoro-6-oxo-1,4,5,6-tetrahydro-2H-pyrano[3,4-c]isoquinolin-1-yl)-3-(3-chloro-4-fluorophenyl)-1-methylurea]",3.1
13,"CN(C(=O)Nc1ccc(F)c(Cl)c1)[C@@H]1COCc2nc(OCCN)c3cc(F)c(F)cc3c21 [Compound 258, (S)-1-(6-(2-Aminoethoxy)-8,9-difluoro-1,4-dihydro-2H-pyrano[3,4-c]isoquinolin-1-yl)-3-(3-chloro-4-fluorophenyl)-1-methylurea]",0.065

# Same assay, conditions: Hepatitis B virus, HepDE19, 168 h, read-out: DE-19bDNA EC50 (uM), inhibition of rcDNA formation in HepDE19 cells (HepG2 derived), Tet-free medium, 7 day incubation, Quantigene 2.0 bDNA readout, top concentration 25 μM
row,Structure (SMILES),EC50 [µM]
1,"CN(C(=O)N1Cc2ccc(C(F)(F)F)cc2C1)[C@@H]1COCc2[nH]c(=O)c3cc(F)c(F)cc3c21 [Compound 230, (S)—N-(8,9-Difluoro-6-oxo-1,4,5,6-tetrahydro-2H-pyrano[3,4-c]isoquinolin-1-yl)-N-methyl-5-(trifluoromethyl)isoindoline-2-carboxamide]",24
